Strand notation (5' to 3'): a small letter for the sugar, then the base; units joined by * are phosphorothioate-linked, units joined directly phosphodiester-linked; [ ] holds rarer units or linkages, { } end groups; capitals alone tell only the bases. d = 2'-deoxy (DNA)
Legend:
[1] = system: JNK1 mRNA; assay: Northern assay of JNK1 mRNA expression in A549 cells; format: cell-based, human; conditions: for % EXPRESSION: relative to LIPOFECTIN-only control; for Normalized % Control: JNK1 mRNA dose response
Experimental: (§1) In order to evaluate the activity of potential JNK-modulating oligonucleotides, human lung carcinoma cell line A549 (American Type Culture Collection, Rockville, Md. No. ATCC CCL-185) cells or other cell lines as indicated in the Examples, were grown and treated with oligonucleotides or control solutions as detailed below. After harvesting, cellular extracts were prepared and examined for specific JNK mRNA levels or JNK protein levels (i.e., Northern or Western assays, respectively). In all cases, “% expression” refers to the amount of JNK-specific signal in an oligonucleotide-treated cell relative to an untreated cell (or a cell treated with a control solution that lacks oligonucleotide), and “% inhibition” is calculated as
(§2) 100%−% Expression =% Inhibition.
(§3) Northern Assays: The mRNA expression of each JNK protein was determined by using a nucleic acid probe specifically hybridizable thereto. Nucleic acid probes specific for JNK1, JNK2 and JNK3 are described in Examples 3, 4 and 5, respectively. The probes were radiolabelled by means well known in the art (see, e.g., Short Protocols in Molecular Biology, 2nd Ed., Ausubel et al., Eds., John Wiley & Sons, New York, 1992, pages 3-11 to 2-3-44 and 4-17 to 4-18; Ruth, Chapter 6 In: Methods in Molecular Biology, Vol. 26: Protocols for Oligonucleotide Conjugates, Agrawal, ed., Humana Press Inc., Totowa, N.J., 1994, pages 167-185; and Chapter 10 In: Molecular Cloning: A Laboratory Manual, 2nd Ed., Sambrook et al., Eds., pages 10.1-10.70). The blots were stripped and reprobed with a ^32P-labeled glyceraldehyde 3-phosphate dehydrogenase (G3PDH) probe (Clontech Laboratories, Inc., Palo Alto, Calif.) in order to confirm equal loading of RNA and to allow the levels of JNK transcripts to be normalized with regard to the G3PDH signals.
(§4) A549 cells were grown in T-75 flasks until 80-90% confluent. At this time, the cells were washed twice with 10 mL of media (DMEM), followed by the addition of 5 mL of DMEM containing 20 μg/mL of LIPOFECTIN™ (i.e., 1:1 (w/w) DOTMA/DOPE, Life Technologies, Gaithersburg, Md.; DOTMA=N-[1-(2,3-dioleyoxy)propyl]-N,N,N-trimethylammonium chloride; DOPE=dioleoyl phosphatidylethanolamine). The oligonucleotides were added from a 10 μM stock solution to a final concentration of 400 nM, and the two solutions were mixed by swirling the flasks. As a control, cells were treated with LIPOFECTIN™ without oligonucleotide under the same conditions and for the same times as the oligonucleotide-treated samples. After 4 hours at 37° C., the medium was replaced with fresh DMEM containing 10% serum. The cells were allowed to recover for 18 hours. Total cellular RNA was then extracted in guanidinium, subject to gel electrophoresis and transferred to a filter according to techniques known in the art (see, e.g., Chapter 7 In: Molecular Cloning: A Laboratory Manual, 2nd Ed., Sambrook et al., Eds., pages 7.1-7.87, and Short Protocols in Molecular Biology, 2nd Ed., Ausubel et al., Eds., John Wiley & Sons, New York, 1992, pages 2-24 to 2-30 and 4-14 to 4-29). Filters were typically hybridized overnight to a probe specific for the particular JNK gene of interest in hybridization buffer (25 mM KPO4, pH 7.4; 5×SSC; 5× Denhardt's solution, 100 μg/ml Salmon sperm DNA and 50% formamide) (Alahari et al., Nucl. Acids Res., 1993, 21, 4079). This was followed by two washes with 1×SSC, 0.1% SDS and two washes with 0.25×SSC, 0.1% SDS. Hybridizing bands were visualized by exposure to X-OMAT AR film and quantitated using a PHOSPHORIMAGER™ essentially according to the manufacturer's instructions (Molecular Dynamics, Sunnyvale, Calif.)
B. JNK1-specific probes: In initial screenings of a set of oligonucleotides derived from the JNK1 sequence (Table 2) for biological activity, a cDNA clone of JNK1 (Derijard et al., Cell, 1994, 76, 1025) was radiolabeled and used as a JNK1-specific probe in Northern blots. […]

[2] = system: JNK2 mRNA; assay: Northern assay of JNK2 mRNA expression in A549 cells; format: cell-based, human; conditions: JNK2 mRNA, A549 cells, 400 nM oligonucleotide, relative to LIPOFECTIN-only control
Experimental: as §1, §2, §3, §4
B. JNK2-specific probes: In initial screenings of a set of oligonucleotides derived from the JNK2 sequence (Table 9) for biological activity, a cDNA clone of JNK2 (Kallunki et al., Genes & Development, 1994, 8, 2996) was radiolabeled and used as a JNK2-specific probe in Northern blots. […]

[3] = JNK1 mRNA, A549 cells, 400 nM oligonucleotide
[4] = JNK1 mRNA, A549 cells, 400 nM oligonucleotide, 100% - % expression

| Substance | % EXPRESSION [1, 3] [%] | % INHIBITION [1, 4] [%] | other results |
| --- | --- | --- | --- |
| 11978 (antisense ATTCTTTCCACTCTTCTATT; DNA, all phosphorothioate, methylation of C not given here) [compound 11978] | 85 | 15 |  |
| 11979 (antisense CTCCTCCAAGTCCATAACTT; DNA, all phosphorothioate, methylation of C not given here) [compound 11979] | 90 | 10 |  |
| 11980 (antisense CCCGTATAACTCCATTCTTG; DNA, all phosphorothioate, methylation of C not given here) [compound 11980] | 85 | 15 |  |
| 11981 (antisense CTGTGCTAAAGGAGAGGGCT; DNA, all phosphorothioate, methylation of C not given here) [compound 11981] | 62 | 28 |  |
| 11982 (antisense ATGATGGATGCTGAGAGCCA; DNA, all phosphorothioate, methylation of C not given here) [compound 11982] | 13 |  |  |
| 11983 (antisense GTTGACATTGAAGACACATC; DNA, all phosphorothioate, methylation of C not given here) [compound 11983] | 40 |  |  |
| 11984 (antisense CTGTATCAGAGGCCAAAGTC; DNA, all phosphorothioate, methylation of C not given here) [compound 11984] | 53 | 47 |  |
| 11985 (antisense TGCTGCTTCTAGACTGCTGT; DNA, all phosphorothioate, methylation of C not given here) [compound 11985] | 47 |  |  |
| 11986 (antisense AGTCATCTACAGCAGCCCAG; DNA, all phosphorothioate, methylation of C not given here) [compound 11986] | 90 | 10 |  |
| 11987 (antisense CCATCCCTCCCACCCCCCGA; DNA, all phosphorothioate, methylation of C not given here) [compound 11987] | 47 |  |  |
| 11988 (antisense ATCAATGACTAACCGACTCC; DNA, all phosphorothioate, methylation of C not given here) [compound 11988] | 78 | 22 |  |
| 11989 (antisense CAAAAATAAGACCACTGAAT; DNA, all phosphorothioate, methylation of C not given here) [compound 11989] | 60 | 40 |  |
| 12463 (antisense CACGCTTGCTTCTGCTCATG; DNA, all phosphorothioate, methylation of C not given here) [compound 12463] | 23 |  |  |
| 12464 (antisense CGGCTTAGCTTCTTGATTGC; DNA, all phosphorothioate, methylation of C not given here) [compound 12464] | 18 |  |  |
| 12538 (antisense CCCGCTTGGCATGAGTCTGA; chemistry not fully specified) [compound 12538] | 33 |  |  |
| 12548 (antisense ATTTGCATCCATGAGCTCCA; DNA, all phosphorothioate, methylation of C not given here) [compound 12548] | 5 |  |  |
| 12549 (antisense CGTTCCTGCAGTCCTGGCCA; DNA, all phosphorothioate, methylation of C not given here) [compound 12549] | 28 |  |  |
| 12550 (antisense GGATGACCTCGGGTGCTCTG; DNA, all phosphorothioate, methylation of C not given here) [compound 12550] | 40 |  |  |
| 12551 (antisense CCCATAATGCACCCCACAGA; DNA, all phosphorothioate, methylation of C not given here) [compound 12551] | 52 | 48 |  |
| 12552 (antisense CGGGTGTTGGAGAGCTTCAT; DNA, all phosphorothioate, methylation of C not given here) [compound 12552] | 34 |  |  |
| 12553 (antisense TTTGGTGGTGGAGCTTCTGC; DNA, all phosphorothioate, methylation of C not given here) [compound 12553] | 25 |  |  |
| 12554 (antisense GGCTGCCCCCGTATAACTCC; DNA, all phosphorothioate, methylation of C not given here) [compound 12554] | 11 |  |  |
| 12555 (antisense TGCTAAAGGAGAGGGCTGCC; DNA, all phosphorothioate, methylation of C not given here) [compound 12555] | 27 |  |  |
| 12556 (antisense AGGCCAAAGTCGGATCTGTT; DNA, all phosphorothioate, methylation of C not given here) [compound 12556] | 41 |  |  |
| 12557 (antisense CCACCCCCCGATGGCCCAAG; DNA, all phosphorothioate, methylation of C not given here) [compound 12557] | 29 |  |  |
| 12558 (antisense dG*dT*dT*dT*dC*dA*dG*dA*dT*dC*dC*dC*dT*dC*dG*dC*dC*dC*dG*dC) [compound 12558] |  |  | % EXPRESSION [2]: 15% |
| 12559 (antisense dT*dG*dC*dA*dG*dC*dA*dC*dA*dA*dA*dC*dA*dA*dT*dC*dC*dC*dT*dT) [compound 12559] |  |  | % EXPRESSION [2]: 28% |
| 14320 (sense CCAAGCGGGCCTACAGAGAG; DNA, all phosphorothioate, methylation of C not given here) [compound 14320] |  |  | Normalized % Control ([1]; 50 nM): 103.6%; Normalized % Control ([1]; 100 nM): 76.3%; Normalized % Control ([1]; 200 nM): 98.9%; Normalized % Control ([1]; 400 nM): 97.1% |
| 14321 (CTTTCCGTTGGACCCCTGGG; DNA, all phosphorothioate, methylation of C not given here) [compound 14321] |  |  | Normalized % Control ([1]; 50 nM): 91.8%; Normalized % Control ([1]; 100 nM): 94.1%; Normalized % Control ([1]; 200 nM): 100.2%; Normalized % Control ([1]; 400 nM): 79.2% |
| CTC-TCT-GTA-GGC-CCG-CTT-GG (CTCTCTGTAGGCCCGCTTGG; chemistry not given here) [ISIS 12539] |  |  | % INHIBITION ([1]; JNK1 mRNA time course, t=0 h after 4 hour treatment): greater than 85%; % INHIBITION ([1]; JNK1 mRNA time course, t=4 h): about 95%; % INHIBITION ([1]; JNK1 mRNA time course, t=12 h): greater than or equal to 80%; % INHIBITION ([1]; JNK1 mRNA time course, t=48 h): greater than or equal to 80%; % INHIBITION ([1]; JNK1 mRNA time course, time 272 h [sic] (t=72 h in text)): ≥ 60% |

From patent US20040029823A1, “Antisense oligonucleotide compositions and methods for the modulation of JNK proteins” (priority 1997, published 2004)
